Reference: US9034882B2, “Inhibitors of human immunodeficiency virus replication” (priority 2012, dated 2015)
Read-outs that look alike come from different tables or passages of the source.

Test system: recombinant NL-Rluc virus
Test: Inhibition of HIV replication (NL-RLuc luciferase reporter virus in MT-2 cells)
Format: cell-based
Conditions: Human immunodeficiency virus 1, MT2, 120 h

SMILES	EC50 (read-out: Activity)	EC50 (read-out: EC50 μM)
Cc1nc2cc(-c3ccc4c(c3)CCCC4)nn2c(N2CCC(C)CC2)c1[C@H](OC(C)(C)C)C(=O)O [Example 34, (S)-2-(tert-Butoxy)-2-(5-methyl-7-(4-methylpiperidin-1-yl)-2-(5,6,7,8-tetrahydronaphthalen-2-yl)pyrazolo[1,5-a]pyrimidin-6-yl)acetic acid]	0.1 to 1 µM	
Cc1nc2cc(-c3cccc(-c4ccccc4)c3)nn2c(N2CCC(C)(C)CC2)c1C(OC(C)(C)C)C(=O)O (stereo not drawn) [Example 35, 2-(2-([1,1′-Biphenyl]-3-yl)-7-(4,4-dimethylpiperidin-1-yl)-5-methylpyrazolo[1,5-a]pyrimidin-6-yl)-2-(tert-butoxy)acetic acid]	0.1 to 1 µM	0.13 µM
Cc1nc2c(-c3cccc(Cl)c3)cnn2c(N2CCC(C)(C)CC2)c1C(OC(C)(C)C)C(=O)O (stereo not drawn) [Example 36, 2-(tert-butoxy)-2-(3-(3-chlorophenyl)-7-(4,4-dimethylpiperidin-1-yl)-5-pyrazolo[1,5a]pyrimidin-6-yl)acetic acid]	0.1 to 1 µM	
Cc1nc2nc(-c3ccccc3)nn2c(N2CCC(C)(C)CC2)c1C(OC(C)(C)C)C(=O)O (stereo not drawn) [Example 37, 2-tert-Butoxy-2-(7-(4,4-dimethylpiperidin-1-yl)-5-methyl-2-phenyl-[1,2,4]triazolo[1,5-a]pyrimidin-6-yl)acetic acid]	0.1 to 1 µM	0.24 µM
Cc1nc2nc(-c3ccccc3)nn2c(N2CCC(C)CC2)c1C(OC(C)(C)C)C(=O)O (stereo not drawn) [Example 38, 2-tert-Butoxy-2-(5-methyl-7-(4-methylpiperidin-1-yl)-2-phenyl-[1,2,4]triazolo[1,5-a]pyrimidin-6-yl)acetic acid]	> 1 µM	
Cc1nc2nc(-c3ccccc3)nn2c(N2CC[C@H]3CCCC[C@H]3C2)c1C(OC(C)(C)C)C(=O)O (stereo partly drawn) [Example 39, 2-(tert-Butoxy)-2-(5-methyl-7-((4aR,8aR)-octahydroisoquinolin-2(1H)-yl)-2-phenyl-[1,2,4]triazolo[1,5-a]pyrimidin-6-yl)acetic acid]	0.1 to 1 µM	
Cc1nc2nc(-c3ccccc3)nn2c(N2CC[C@H]3CCCC[C@@H]3C2)c1C(OC(C)(C)C)C(=O)O (stereo partly drawn) [Example 40, 2-(tert-Butoxy)-2-(5-methyl-7-((4aR,8aS)-octahydroisoquinolin-2(1H)-yl)-2-phenyl-[1,2,4]triazolo[1,5-a]pyrimidin-6-yl)acetic acid]	> 1 µM	
Cc1nc2nc(-c3ccccc3)nn2c(N2CCCC(C)(C)C2)c1C(OC(C)(C)C)C(=O)O (stereo not drawn) [Example 41, 2-(tert-Butoxy)-2-(7-(3,3-dimethylpiperidin-1-yl)-5-methyl-2-phenyl-[1,2,4]triazolo[1,5-a]pyrimidin-6-yl)acetic acid]	< 0.1 µM	
Cc1nc2nc(-c3cccc(-c4ccccc4)c3)nn2c(N2CCC(C)(C)CC2)c1[C@H](OC(C)(C)C)C(=O)O [Example 42, (S)-2-(2-([1,1′-Biphenyl]-3-yl)-7-(4,4-dimethylpiperidin-1-yl)-5-methyl-[1,2,4]triazolo[1,5-a]pyrimidin-6-yl)-2-(tert-butoxy)acetic acid]	< 0.1 µM	0.05 µM
Cc1nc2cc(-c3cccc(-c4ccccc4)c3)nn2c(N2[C@@H]3CCC[C@H]2CC3)c1[C@H](OC(C)(C)C)C(=O)O [Example 43, (S)-2-(2-([1,1′-Biphenyl]-3-yl)-7-((1R,5S)-8-azabicyclo[3.2.1]octan-8-yl)-5-methylpyrazolo[1,5-a]pyrimidin-6-yl)-2-(tert-butoxy)acetic acid]	0.1 to 1 µM	0.78 µM
Cc1nc2cc(-c3cccc(-c4ccccc4)c3)nn2c(N2CCOCC2)c1[C@H](OC(C)(C)C)C(=O)O [Example 44, (S)-2-(2-([1,1′-Biphenyl]-3-yl)-5-methyl-7-morpholinopyrazolo[1,5-a]pyrimidin-6-yl)-2-(tert-butoxy)acetic acid]	0.1 to 1 µM	
Cc1nc2cc(-c3cccc(-c4ccccc4)c3)nn2c(N2[C@@H]3CC[C@H]2COC3)c1[C@H](OC(C)(C)C)C(=O)O [Example 45, (S)-2-(2-([1,1′-Biphenyl]-3-yl)-7-((1R,5S)-3-oxa-8-azabicyclo[3.2.1]octan-8-yl)-5-methylpyrazolo[1,5-a]pyrimidin-6-yl)-2-(tert-butoxy)acetic acid]	> 1 µM	3.14 µM
Cc1nc2cc(-c3cccc(-c4ccccc4)c3)nn2c(N2CCS(=O)(=O)CC2)c1[C@H](OC(C)(C)C)C(=O)O [Example 46, (S)-2-(2-([1,1′-Biphenyl]-3-yl)-7-(1,1-dioxidothiomorpholino)-5-methylpyrazolo[1,5-a]pyrimidin-6-yl)-2-(tert-butoxy)acetic acid]	0.1 to 1 µM	
Cc1nc2cc(-c3cccc(-c4ccccc4)c3)nn2c(N2CCC3(CC2)CC3)c1[C@H](OC(C)(C)C)C(=O)O [Example 47, (S)-2-(2-([1,1′-Biphenyl]-3-yl)-5-methyl-7-(6-azaspiro[2.5]octan-6-yl)pyrazolo[1,5-a]pyrimidin-6-yl)-2-(tert-butoxy)acetic acid]	0.1 to 1 µM	
Cc1nc2cc(-c3cccc(-c4ccccc4)c3)nn2c(N2C3CCCC2COC3)c1[C@H](OC(C)(C)C)C(=O)O [Example 48, (2S)-2-(2-([1,1′-Biphenyl]-3-yl)-7-(3-oxa-9-azabicyclo[3.3.1]nonan-9-yl)-5-methylpyrazolo[1,5-a]pyrimidin-6-yl)-2-(tert-butoxy)acetic acid]	> 1 µM	
Cc1nc2cc(-c3cccc(-c4ccccc4)c3)nn2c(N2CCOC(C)(C)C2)c1[C@H](OC(C)(C)C)C(=O)O [Example 49, (S)-2-(2-([1,1′-Biphenyl]-3-yl)-7-(2,2-dimethylmorpholino)-5-methylpyrazolo[1,5-a]pyrimidin-6-yl)-2-(tert-butoxy)acetic acid]	0.1 to 1 µM	
Cc1nc2cc(-c3cccc(-c4ccccc4)c3)nn2c(N2C3CCC2CN(C)C3)c1[C@H](OC(C)(C)C)C(=O)O [Example 50, (S)-2-(2-([1,1′-Biphenyl]-3-yl)-5-methyl-7-((1R,5S)-3-methyl-3,8-diazabicyclo[3.2.4]octan-8-yl)pyrazolo[1,5-a]pyrimidin-6-yl)-2-(tert-butoxy)acetic acid]	> 1 µM	3.23 µM
Cc1nc2cc(-c3cccc(-c4ccccc4F)c3)nn2c(N2CCC3(CC2)CC3)c1[C@H](OC(C)(C)C)C(=O)O [Example 51, (S)-2-(tert-Butoxy)-2-(2-(2′-fluoro-[1,1′-biphenyl]-3-yl)-5-methyl-7-(6-azaspiro[2.5]octan-6-yl)pyrazolo[1,5-a]pyrimidin-6-yl)acetic acid]	0.1 to 1 µM	
Cc1nc2cc(-c3cccc(-c4ccccc4F)c3)nn2c(N2CCC(C)(C)CC2)c1[C@H](OC(C)(C)C)C(=O)O [Example 52, (S)-2-(tert-Butoxy)-2-(7-(4,4-dimethylpiperidin-1-yl)-2-(2′-fluoro-[1,1′-biphenyl]-3-yl)-5-methylpyrazolo[1,5-a]pyrimidin-6-yl)acetic acid]	< 0.1 µM	0.05 µM
Cc1nc2cc(-c3cccc(-c4cccc(F)c4)c3)nn2c(N2CCC3(CC2)CC3)c1[C@H](OC(C)(C)C)C(=O)O [Example 53, (S)-2-(tert-Butoxy)-2-(2-(3′-fluoro-[1,1′-biphenyl]-3-yl)-5-methyl-7-(6-azaspiro[2.5]octan-6-yl)pyrazolo[1,5-a]pyrimidin-6-yl)acetic acid]	0.1 to 1 µM	
